Reference: PubChem BioAssay (NCI)
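All cell lines were grown in 96-well plates and treated with compound for 48 hours. TGI: total growth inhibition.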

Key:
Experiment in all cases: growth of human tumour cells (NCI), 48 h
[1] = tested on: HOP-62 NSCLC
[2] = tested on: MALME-3M melanoma
[3] = tested on: NCI-H460 lung
[4] = tested on: RXF 393 renal
[5] = tested on: SF-268 CNS
[6] = tested on: SF-539 CNS
[7] = tested on: SK-MEL-28 melanoma
[8] = tested on: SK-MEL-5 melanoma
[9] = tested on: SNB-19 CNS
[10] = tested on: U251 CNS

| SMILES | TGI [1] [µM] | TGI [2] [µM] | TGI [3] [µM] | TGI [4] [µM] | TGI [5] [µM] | TGI [6] [µM] | TGI [7] [µM] | TGI [8] [µM] | TGI [9] [µM] | TGI [10] [µM] |
| --- | --- | --- | --- | --- | --- | --- | --- | --- | --- | --- |
| C=C1CC(C)(c2ccc(Nc3nc4ccccc4c4occc34)cc2)OC1=O (stereo not given) | 34 | 43.4 | 51.5 | 4.92 | 15.2 | 4.5 | 27.4 | 19.6 | 34.6 | 38.9 |
| CCC(=O)Oc1c2ccsc2c(OC(=O)CC)c2ccsc12 | 2.95 | 0.14 | 3.87 | 2.69 | 2.29 | 0.472 | 0.353 | 0.216 | 1.58 | 1.65 |
| O=C(N/N=C/c1cc(Br)cc(Br)c1[O-])c1ccccc1O.O=C(N/N=C/c1cc(Br)cc(Br)c1[O-])c1ccccc1O.[Fe+2] | 8.53 | 37.5 | 22.2 | 20.6 | 38.9 | 14.1 | 21.6 | 23.4 | 20.4 | 7.88 |
| Cc1cn([C@@H]2C[C@H]2CO)c(=O)[nH]c1=O | > 100 | > 100 | > 100 | > 100 | > 100 | > 100 | > 100 | > 100 | > 100 | > 100 |
| COc1ccc2c(c1)CN1C(=N2)CSC1c1ccccc1Cl (stereo not given) | > 100 | 47.9 | 32.7 | 29.7 | 76.4 | 32.1 | 26.9 | 28.5 | > 100 | 59.6 |
| N#Cc1cc2c(cc1Cl)Sc1nccn1S2(=O)=O | 10.8 | 22.2 | 32.2 | 15.5 | 13 | 12.2 | 7.33 | 22.6 | 24.6 | 3.21 |
| CC1(CNCc2ccccc2)CC(CCc2ccccc2)N(C(=O)c2ccc([N+](=O)[O-])cc2)C1Cc1ccc(O)cc1 (stereo not given) | 31.1 | 33.6 | 30.8 | 17.4 | 27.6 | 35.2 | > 100 | 17.3 | 29.1 | 26.2 |
| COc1cc(CN2CCCCC2)cc2cc(C(=O)O)c(=O)oc12 | > 100 | > 100 | > 100 | > 100 | > 100 | > 100 | > 100 | > 100 | > 100 | > 100 |
| COC(=O)Cc1c([C@H]2[C@H](CC(=O)OC)c3ccccc3N2C(C)=O)[nH]c2ccccc12 | > 100 | > 100 | > 100 | > 100 | > 100 | > 100 | > 100 | > 100 | > 100 | > 100 |
| COc1cc(/C=C\C(=O)O)ccc1OCc1ccccc1 | > 100 | > 100 | > 100 | > 100 | > 100 | > 100 | > 100 | > 100 | > 100 | > 100 |
| O=C1C=C(c2ccccc2)O/C1=C/C(=O)c1ccc(Cl)cc1 | 85.3 | 36 | 41.5 | 34.7 | 54.6 | 43.4 | 32.9 | 44.2 | > 100 | 29.1 |
| CC1(C)C=C(S(=O)(=O)c2ccccc2)Oc2ccccc2O1 | > 100 | 75.2 | > 100 | > 100 | > 100 | > 100 | > 100 | 28.9 | > 100 | > 100 |
| NC(N)=NS(=O)(=O)c1ccc(NC(=O)c2ccc3nc4ccccc4c(Nc4ccc(S(=O)(=O)N=C(N)N)cc4)c3c2)cc1 | > 100 | > 100 | > 100 | > 100 | > 100 | > 100 | > 100 | > 100 | > 100 | > 100 |
| Cn1c([O-])nc(-n2cc[n+](C)c2)cc1=O | > 100 | > 100 | > 100 | > 100 | > 100 | > 100 | > 100 | > 100 | > 100 | > 100 |
| c1ccc(/C(=N/Nc2ccccn2)c2ncccn2)cc1 | > 42.7 | 59.8 | > 57.8 | > 100 | 5.06 | 46 | > 78.1 | 26.9 | > 100 | > 51.6 |
| C=c1c(OC)c(OC)c(O)c2c1=c1cc([N+](=O)[O-])cc(OC)c1=N2 | > 100 | > 100 | > 100 | > 100 | > 100 | > 100 | > 100 | > 100 | > 100 | > 100 |
| Brc1ccc2c(-c3csc(-c4c[nH]c5ccc(Br)cc45)n3)c[nH]c2c1 | 27.1 | 19.3 | 6.89 | 9.55 | 13.2 | 15.1 | 25.8 | 12.8 | 14.7 | 16.5 |

| SMILES | TGI [1] [µM] | TGI [2] [µM] | TGI [3] [µM] | TGI [4] [µM] | TGI [5] [µM] | TGI [6] [µM] | TGI [7] [µM] | TGI [8] [µM] | TGI [9] [µM] | TGI [10] [µM] |
| --- | --- | --- | --- | --- | --- | --- | --- | --- | --- | --- |
| NC(N)=Nc1ncccc1[N+](=O)[O-] | > 100 | > 88 | > 100 | > 100 | > 100 | > 100 | > 100 | > 100 | > 100 | > 31.6 |
| O=c1c2ccccc2nc(Nc2cccc(Cl)c2)n1/N=C/C=C/c1ccccc1 | > 100 | > 100 | > 100 | > 100 | > 100 | > 100 | > 100 | > 100 | > 100 | > 100 |
| Cc1nc(C)c(Cc2ccccc2)o1 | > 100 | > 100 | > 100 | > 100 | > 100 | > 100 | > 100 | > 100 | > 100 | > 100 |
| CC(C)(C)c1cc(/C=C(\C#N)C(=O)NCCO)cc(C(C)(C)C)c1O | 49.6 | 61.9 | 43.5 | 57.6 | > 100 | 38.3 | 47.1 | 28.1 | > 100 | 39.9 |
| Cc1nn(-c2cc(Cl)ccc2[N+](=O)[O-])c(C)c1Cl | > 100 | > 100 | > 100 | 76 | > 100 | > 100 | > 100 | > 100 | > 100 | > 100 |
| COc1cc(I)c2c3c1OC1C34CCN(C)C(C2)C4=CC(I)C1(OC)OC (stereo not given) | 46.3 | 47.1 | 38.7 | 38.2 | 61.5 | 40.1 | 47.5 | 34 | 71.9 | 33.9 |
| COC(=O)c1ccc(C=Nc2ccc(S(N)(=O)=O)cc2)cc1 | > 100 | > 100 | > 100 | > 100 | > 100 | > 100 | > 100 | > 100 | > 100 | > 100 |
| O=c1c(-c2ccc(Cl)cc2)nnc2n(Cc3ccccc3)c3ccccc3n12 | 44.9 | > 100 | > 100 | 40.2 | > 100 | 37.9 | > 100 | > 100 | 72 | 72.7 |
| CN(C)S(=O)(=O)Nc1nnc(S(N)(=O)=O)s1 | > 100 | > 100 | > 100 | > 100 | > 100 | > 100 | > 100 | > 100 | > 100 | > 100 |
| OC1(c2ccc(Cl)cc2)c2ccc3ccccc3c2C2=N[C@H]3CCCC[C@@H]3N21 (stereo not given in full) | 11.5 | 0.93 | > 100 | 20.8 | > 100 | 43.7 | > 100 | > 100 | > 100 | 27.9 |
| CCOC(=O)C(NC(=O)CC(C)C)(N1CCN(c2cc3c(cc2F)c(=O)c(C(=O)O)cn3C2CC2)CC1)C(F)(F)F (stereo not given) | > 100 | 31.7 | > 100 | 35.8 | 40.8 | 34.7 | 55.5 | 25.4 | > 100 | > 100 |
| Nc1ccc(S(=O)(=O)Nc2nc3ccccc3nc2N2CCCCC2)cc1 | > 100 | > 100 | > 100 | > 100 | > 100 | > 100 | > 100 | > 100 | > 100 | > 100 |
| Clc1ccc(OCc2nnc(CCCCCCCCc3nnc(COc4ccc(Cl)cc4)n3Nc3ccccc3)n2Nc2ccccc2)cc1 | > 100 | > 65.6 | > 100 | 70.8 | > 100 | 40.1 | > 100 | 2.72 | > 100 | > 87.4 |
| O=C1CSC(c2cccs2)N1c1nc2cc3sc(N4C(=O)CSC4c4cccs4)nc3cc2s1 (stereo not given) | > 50 | > 50 | > 50 | > 50 | > 50 | 3.6 | > 50 | > 50 | > 50 | > 50 |
| O=C(CC1=NCCN1)c1ccccc1 | > 750 | > 750 | > 511 | > 750 | > 750 | > 750 | > 750 | > 750 | > 750 | > 750 |
| C=C1C(=O)O[C@@]23C1CC[C@@H](C)C2CC[C@@]1(C)OC31 (stereo not given in full) | 39.3 | 7.59 | 35.2 | 39.9 | 34.3 | 12.2 | 22.6 | 12.3 | 47.4 | 19.3 |
